Source: patent US20260250318A1, “COMPOSITIONS AND METHODS FOR CROSSING THE BLOOD BRAIN BARRIER” (VOYAGER THERAPEUTICS, INC., priority 2022, published 2026)

Experiments:
[1] = tested on: brain; experiment: Matured TTM-001 and TTM-002 variants, NGS enrichment in mouse brain; assay type: in vivo, mice; conditions: relative to AAV9 control
[2] = tested on: brains, heart, liver, muscle, and DRG of the NHPs; experiment: Maturation of TTM-001 and TTM-002 capsids, NGS enrichment in NHP tissues; assay type: in vivo; conditions: relative to AAV9 control
In short: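 Variants carry mutations within and flanking the loop IV peptide insert: positions 450–466 were triplet-randomized, while positions 449–466 received low-frequency point mutations. The combined pool went into two NHPs, and each peptide was scored by NGS enrichment ratio against AAV9.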

[3] = NGS fold-enrichment, brain of mice
[4] = NGS fold-enrichment, DRG of NHPs
[5] = NGS fold-enrichment, RNA, brain of NHPs
[6] = NGS fold-enrichment, heart of NHPs
[7] = NGS fold-enrichment, liver DNA of NHPs
[8] = NGS fold-enrichment, liver RNA of NHPs
[9] = NGS fold-enrichment, muscle of NHPs
[10] = NGS fold-enrichment of matured AAV capsid variants, NHP brain, RNA
[11] = NGS fold-enrichment, mouse brain
[12] = NGS fold-enrichment of RNA, NHP brain
[13] = NGS fold-enrichment, NHP liver DNA
[14] = NGS fold-enrichment, NHP liver RNA
[15] = NGS fold-enrichment, NHP muscle

Sequence | Fold Enrichment relative to AAV9, Brain (Mouse) [1, 3] [fold] | Fold Enrichment relative to AAV9, DRG (NHP) [2, 4] [fold] | Fold Enrichment relative to AAV9, Brain (NHP) [2, 5] [fold] | Fold Enrichment relative to AAV9, Heart (NHP) [2, 6] [fold] | Fold Enrichment relative to AAV9, Liver DNA (NHP) [2, 7] [fold] | Fold Enrichment relative to AAV9, Liver RNA (NHP) [2, 8] [fold] | Fold Enrichment relative to AAV9, Muscle (NHP) [2, 9] [fold] | further results
KTVIGSGSPHSKALNQQT | 60.369 | 0.000 | 62.358 | 0.310 | 0.245 | 0.062 | 0.000 | –
KTEPTSGSPHSKAQNQQT | – | – | – | – | – | – | – | Fold Enrichment relative to AAV9, Brain (Mouse) ([1]; mouse brain): 143.397 fold; Fold Enrichment relative to AAV9, Brain (NHP) [2, 10]: 56.134 fold; Fold Enrichment relative to AAV9, DRG (NHP) ([2]; NHP DRG): 0.000 fold; Fold Enrichment relative to AAV9, Heart (NHP) ([2]; NHP heart): 0.000 fold; Fold Enrichment relative to AAV9, Liver DNA (NHP) ([2]; NHP liver, DNA): 0.527 fold; Fold Enrichment relative to AAV9, Liver RNA (NHP) ([2]; NHP liver, RNA): 0.061 fold; Fold Enrichment relative to AAV9, Muscle (NHP) ([2]; NHP muscle): 0.000 fold
KTSNGHDSPHKSGQNQPA | – | – | – | – | – | – | – | Fold Enrichment relative to AAV9, Brain (Mouse) [1, 11]: 8.501 fold; Fold Enrichment relative to AAV9, Brain (NHP) [2, 12]: 75.834 fold; Fold Enrichment relative to AAV9, DRG (NHP) ([2]; NGS fold-enrichment, NHP DRG): 0.000 fold; Fold Enrichment relative to AAV9, Heart (NHP) ([2]; NGS fold-enrichment, NHP heart): 0.056 fold; Fold Enrichment relative to AAV9, Liver DNA (NHP) [2, 13]: 0.000 fold; Fold Enrichment relative to AAV9, Liver RNA (NHP) [2, 14]: 0.000 fold; Fold Enrichment relative to AAV9, Muscle (NHP) [2, 15]: 0.000 fold
KTERMSGSPHSKAQNQQT | 122.812 | 0.000 | 74.910 | 0.000 | 0.151 | 0.100 | 0.000 | –
KTINGSGSPHSKAQAKLT | 130.132 | 0.000 | 71.154 | 0.273 | 0.777 | 1.591 | 0.017 | –
KTINGSGSPHSKAQNTYA | 101.715 | 0.000 | 59.603 | 0.000 | 0.346 | 0.425 | 0.000 | –
KTDRGSGSPHSKAQNQQT | 74.256 | 0.000 | 61.419 | 0.004 | 0.316 | 0.211 | 0.000 | –
KSINGSGSPHSKTQSQQT | – | – | – | – | – | – | – | Fold Enrichment relative to AAV9, Brain (Mouse) ([1]; mouse brain): 71.397 fold; Fold Enrichment relative to AAV9, Brain (NHP) [2, 10]: 58.608 fold; Fold Enrichment relative to AAV9, DRG (NHP) ([2]; NHP DRG): 0.000 fold; Fold Enrichment relative to AAV9, Heart (NHP) ([2]; NHP heart): 3.017 fold; Fold Enrichment relative to AAV9, Liver DNA (NHP) ([2]; NHP liver, DNA): 0.017 fold; Fold Enrichment relative to AAV9, Liver RNA (NHP) ([2]; NHP liver, RNA): 0.155 fold; Fold Enrichment relative to AAV9, Muscle (NHP) ([2]; NHP muscle): 0.000 fold
KVINGHDSPHKSGQTQQT (peptide inserted in AAV capsid) | – | – | – | – | – | – | – | Fold Enrichment relative to AAV9, Brain (Mouse) [1, 11]: 7.391 fold; Fold Enrichment relative to AAV9, Brain (NHP) [2, 12]: 91.665 fold; Fold Enrichment relative to AAV9, DRG (NHP) ([2]; NGS fold-enrichment, NHP DRG): 0.000 fold; Fold Enrichment relative to AAV9, Heart (NHP) ([2]; NGS fold-enrichment, NHP heart): 0.055 fold; Fold Enrichment relative to AAV9, Liver DNA (NHP) [2, 13]: 0.000 fold; Fold Enrichment relative to AAV9, Liver RNA (NHP) [2, 14]: 0.311 fold; Fold Enrichment relative to AAV9, Muscle (NHP) [2, 15]: 1.526 fold
KAINGHDSPHKSGQIRQT | – | – | – | – | – | – | – | Fold Enrichment relative to AAV9, Brain (Mouse) [1, 11]: 8.862 fold; Fold Enrichment relative to AAV9, Brain (NHP) [2, 12]: 108.510 fold; Fold Enrichment relative to AAV9, DRG (NHP) ([2]; NGS fold-enrichment, NHP DRG): 0.000 fold; Fold Enrichment relative to AAV9, Heart (NHP) ([2]; NGS fold-enrichment, NHP heart): 23.908 fold; Fold Enrichment relative to AAV9, Liver DNA (NHP) [2, 13]: 0.261 fold; Fold Enrichment relative to AAV9, Liver RNA (NHP) [2, 14]: 0.132 fold; Fold Enrichment relative to AAV9, Muscle (NHP) [2, 15]: 0.000 fold
KEVHGSGSPHSKAQNQQT | 100.111 | 0.000 | 67.901 | 0.000 | 0.000 | 0.727 | 0.000 | –
KTVNGHDSPHKSGQNLHT | – | – | – | – | – | – | – | Fold Enrichment relative to AAV9, Brain (Mouse) [1, 11]: 11.363 fold; Fold Enrichment relative to AAV9, Brain (NHP) [2, 12]: 88.080 fold; Fold Enrichment relative to AAV9, DRG (NHP) ([2]; NGS fold-enrichment, NHP DRG): 0.000 fold; Fold Enrichment relative to AAV9, Heart (NHP) ([2]; NGS fold-enrichment, NHP heart): 0.080 fold; Fold Enrichment relative to AAV9, Liver DNA (NHP) [2, 13]: 0.039 fold; Fold Enrichment relative to AAV9, Liver RNA (NHP) [2, 14]: 0.000 fold; Fold Enrichment relative to AAV9, Muscle (NHP) [2, 15]: 0.000 fold
KTDLKSGSPHSKAQNQQT | 62.687 | 0.000 | 63.152 | 0.000 | 0.377 | 0.285 | 0.012 | –
KTINGSGSPHSKAQDRPT | 66.800 | 0.132 | 70.831 | 0.006 | 0.379 | 0.039 | 0.000 | –
KTEQVSGSPHSKAQNQQT | – | – | – | – | – | – | – | Fold Enrichment relative to AAV9, Brain (Mouse) ([1]; mouse brain): 88.487 fold; Fold Enrichment relative to AAV9, Brain (NHP) [2, 10]: 58.247 fold; Fold Enrichment relative to AAV9, DRG (NHP) ([2]; NHP DRG): 0.000 fold; Fold Enrichment relative to AAV9, Heart (NHP) ([2]; NHP heart): 0.000 fold; Fold Enrichment relative to AAV9, Liver DNA (NHP) ([2]; NHP liver, DNA): 0.081 fold; Fold Enrichment relative to AAV9, Liver RNA (NHP) ([2]; NHP liver, RNA): 0.000 fold; Fold Enrichment relative to AAV9, Muscle (NHP) ([2]; NHP muscle): 0.000 fold
KTINGSGSPHSKGHWQQT | 65.252 | 0.000 | 81.434 | 0.000 | 1.011 | 0.000 | 0.000 | Fold Enrichment relative to AAV9, Brain (Mouse) [1, 11]: 65.252 fold; Fold Enrichment relative to AAV9, Brain (NHP) [2, 12]: 81.434 fold; Fold Enrichment relative to AAV9, DRG (NHP) ([2]; NGS fold-enrichment, NHP DRG): 0.000 fold; Fold Enrichment relative to AAV9, Heart (NHP) ([2]; NGS fold-enrichment, NHP heart): 0.000 fold; Fold Enrichment relative to AAV9, Liver DNA (NHP) [2, 13]: 1.011 fold; Fold Enrichment relative to AAV9, Liver RNA (NHP) [2, 14]: 0.000 fold; Fold Enrichment relative to AAV9, Muscle (NHP) [2, 15]: 0.000 fold
KTDRNSGSPHSKAQNQQT | – | – | – | – | – | – | – | Fold Enrichment relative to AAV9, Brain (Mouse) ([1]; mouse brain): 85.823 fold; Fold Enrichment relative to AAV9, Brain (NHP) [2, 10]: 54.495 fold; Fold Enrichment relative to AAV9, DRG (NHP) ([2]; NHP DRG): 0.000 fold; Fold Enrichment relative to AAV9, Heart (NHP) ([2]; NHP heart): 0.000 fold; Fold Enrichment relative to AAV9, Liver DNA (NHP) ([2]; NHP liver, DNA): 0.241 fold; Fold Enrichment relative to AAV9, Liver RNA (NHP) ([2]; NHP liver, RNA): 0.823 fold; Fold Enrichment relative to AAV9, Muscle (NHP) ([2]; NHP muscle): 0.000 fold
